Values of other authors in paper PMC2228077, “The bioavailability of oral GI147211 (GG211), a new topoisomerase I inhibitor” (British Journal of Cancer, 1997).
Where “and” joins values, the source holds several entries; their conditions need not be identical. Equal values may be shown once.

Key:
[1] = parameters: method as in Kuhn et al, 1995; Schellens et al, 1996; conditions: oral topotecan; ref Kuhn et al, 1995; Schellens et al, 1996; cited from earlier work
[2] = parameters: method as in Rowinsky et al, 1992; Verweij et al, 1993; conditions: ref Rowinsky et al, 1992; Verweij et al, 1993; cited from earlier work
[3] = human, in vivo, po; cited from earlier work

In the case of `CC[C@@]1(O)C(=O)OCc2c1cc1n(c2=O)Cc2cc3c(CN(C)C)c(O)ccc3nc2-1` [topotecan], the “bioavailability (variable systemic exposure)” value [1] is listed as 32% and 44% and the dose-limiting toxicity [2] is listed as “cumulative myelosuppression”.

For `CC[C@@]1(O)C(=O)OCc2c1cc1n(c2=O)Cc2cc3c([N+](=O)[O-])cccc3nc2-1` [9-nitro-camptothecin], the “patients who developed CTC grade >= II diarrhoea” value [3] is listed as 33%.
